Experimental data from patent publication US20110230481A2, “DERIVATIVES OF TETRABROMOBENZIMIDAZOLE, A PROCESS FOR THE PREPARATION THEREOF, A PHARMACEUTICAL COMPOSITION COMPRISING THE SAME, A METHOD OF USING THE SAME, A METHOD FOR MODULATING OR REGULATING SERINE/THREONINE KINASES, AND SERINE/THREONINE KINASES MODULATING AGENT” (SELVITA S.A., priority 2009, published 2011).

Legend:
Assay in all cases: KINOMEscan Max
Type in all cases: binding
[1] = molecular target: T1, WEE2 (Homo sapiens, UniProt P0C1S8)
T1 construct: purchased Ambit Kinomescan (contract screening service)
How it was run: (§1)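 qPCR read-out of a DNA tag measures how much tagged kinase stays bound to immobilized active-site ligand when test compound is present, i.e. competition binding.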

[2] = molecular target: T2, CAMK1D (Homo sapiens, UniProt Q8IU85)
T2 construct: DNA tag (qPCR label); purchased Ambit Kinomescan (contract screening)
How it was run: as §1

[3] = molecular target: T3, RIPK1 (Homo sapiens, UniProt Q13546)
T3 construct: DNA tag (qPCR read-out)
T3 sequence (Q13546 whole entry): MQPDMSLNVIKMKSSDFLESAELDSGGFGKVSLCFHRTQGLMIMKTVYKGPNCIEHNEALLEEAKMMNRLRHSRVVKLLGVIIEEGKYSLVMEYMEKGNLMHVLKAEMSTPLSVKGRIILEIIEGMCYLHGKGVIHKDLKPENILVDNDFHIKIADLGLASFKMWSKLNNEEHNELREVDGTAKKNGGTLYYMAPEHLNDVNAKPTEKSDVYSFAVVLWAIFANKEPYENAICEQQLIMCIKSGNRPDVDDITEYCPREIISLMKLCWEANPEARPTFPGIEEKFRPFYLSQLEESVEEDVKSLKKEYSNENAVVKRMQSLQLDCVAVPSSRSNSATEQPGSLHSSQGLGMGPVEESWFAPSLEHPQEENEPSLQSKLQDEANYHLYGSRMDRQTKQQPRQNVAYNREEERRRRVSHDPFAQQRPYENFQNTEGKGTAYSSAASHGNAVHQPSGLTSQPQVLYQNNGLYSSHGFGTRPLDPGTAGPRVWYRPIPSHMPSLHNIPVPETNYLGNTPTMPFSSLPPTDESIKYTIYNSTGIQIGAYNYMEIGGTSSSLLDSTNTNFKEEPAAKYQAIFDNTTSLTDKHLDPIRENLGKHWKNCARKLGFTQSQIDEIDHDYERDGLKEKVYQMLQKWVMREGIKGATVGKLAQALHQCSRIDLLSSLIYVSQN
How it was run: as §1

[4] = molecular target: T4, EPHB2 (Homo sapiens, UniProt P29323); conditions: 1 μM
T4 construct: purchased Ambit (KINOMEscan Max service)
How it was run: as §1

[5] = molecular target: TRKB (Homo sapiens, UniProt Q16620)
How it was run: as §1

[6] = molecular target: T5, LATS1 (Homo sapiens, UniProt O95835)
T5 construct: purchased Ambit Kinomescan (contract panel)
How it was run: as §1

[7] = molecular target: T6, ADCK4 (Homo sapiens, UniProt Q96D53)
T6 construct: DNA tag (qPCR read-out)
How it was run: as §1

[8] = molecular target: ERK8 (Homo sapiens, UniProt Q8TD08)
How it was run: as §1

[9] = molecular target: T7, KIT(A829P) (Homo sapiens, UniProt P10721, A829P)
T7 construct: purchased Ambit Kinomescan (contract panel)
How it was run: as §1

[10] = molecular target: MLK2 (Homo sapiens, UniProt Q02779)
How it was run: as §1

[11] = molecular target: MLK3 (Homo sapiens, UniProt Q16584); conditions: 1 μM
How it was run: as §1

[12] = molecular target: S6K1 (Homo sapiens, UniProt P23443)
How it was run: as §1

[13] = molecular target: ABL1-nonphosphorylated (Homo sapiens, UniProt P00519)
How it was run: as §1

[14] = molecular target: PIK3CA(E542K) (Homo sapiens, UniProt P42336, E542K)
How it was run: as §1

[15] = molecular target: MEK5 (Homo sapiens, UniProt Q13163)
MEK5, sequence (Q13163 whole entry): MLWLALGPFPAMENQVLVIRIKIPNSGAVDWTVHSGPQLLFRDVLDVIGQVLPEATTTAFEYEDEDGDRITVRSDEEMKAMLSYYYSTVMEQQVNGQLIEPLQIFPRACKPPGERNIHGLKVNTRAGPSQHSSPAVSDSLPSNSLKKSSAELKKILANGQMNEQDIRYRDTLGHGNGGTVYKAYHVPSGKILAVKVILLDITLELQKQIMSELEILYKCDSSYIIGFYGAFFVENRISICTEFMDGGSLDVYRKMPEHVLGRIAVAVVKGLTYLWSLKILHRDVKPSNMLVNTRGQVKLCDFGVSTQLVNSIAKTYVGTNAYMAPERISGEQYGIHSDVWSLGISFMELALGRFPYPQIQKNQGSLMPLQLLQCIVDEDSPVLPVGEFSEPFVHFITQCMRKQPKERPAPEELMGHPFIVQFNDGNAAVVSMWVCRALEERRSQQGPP
How it was run: as §1

[16] = molecular target: ABL1-phssophorylated (Homo sapiens, UniProt P00519)
How it was run: as §1

[17] = molecular target: ABL1(F317I)-phosphorylated (Homo sapiens, UniProt P00519, F317I)
How it was run: as §1

[18] = molecular target: FLT4 (Homo sapiens, UniProt P35916)
How it was run: as §1

[19] = molecular target: MEK3 (Homo sapiens, UniProt P46734)
How it was run: as §1

[20] = molecular target: T8, HUNK (Homo sapiens, UniProt P57058)
T8 construct: purchased Ambit Kinomescan (contract panel, KINOMEscan Max)
T8 sequence (P57058 whole entry): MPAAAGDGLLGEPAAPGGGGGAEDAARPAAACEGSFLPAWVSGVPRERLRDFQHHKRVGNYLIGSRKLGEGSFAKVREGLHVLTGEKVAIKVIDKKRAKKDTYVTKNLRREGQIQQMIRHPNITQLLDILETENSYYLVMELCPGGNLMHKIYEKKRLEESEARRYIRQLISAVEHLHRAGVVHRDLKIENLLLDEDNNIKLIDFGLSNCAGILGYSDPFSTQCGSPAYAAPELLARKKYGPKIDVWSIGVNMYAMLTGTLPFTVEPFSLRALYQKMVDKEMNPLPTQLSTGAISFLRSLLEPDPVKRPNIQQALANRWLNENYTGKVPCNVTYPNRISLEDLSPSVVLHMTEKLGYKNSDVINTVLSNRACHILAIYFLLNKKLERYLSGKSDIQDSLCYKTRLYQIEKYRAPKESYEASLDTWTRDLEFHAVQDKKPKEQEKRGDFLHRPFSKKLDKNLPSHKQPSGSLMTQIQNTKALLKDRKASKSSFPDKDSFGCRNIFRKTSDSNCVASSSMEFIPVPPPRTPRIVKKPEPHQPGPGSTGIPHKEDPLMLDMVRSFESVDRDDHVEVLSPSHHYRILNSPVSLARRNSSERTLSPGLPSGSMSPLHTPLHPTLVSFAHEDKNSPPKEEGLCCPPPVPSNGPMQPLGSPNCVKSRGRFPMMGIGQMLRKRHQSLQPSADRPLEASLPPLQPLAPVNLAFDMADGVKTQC
How it was run: as §1

[21] = molecular target: T9, PLK2 (Homo sapiens, UniProt Q9NYY3); conditions: 1 μM
T9 construct: DNA tag (qPCR read-out)
How it was run: as §1

[22] = molecular target: T10, LZK (Homo sapiens, UniProt O43283); conditions: 1 μM
T10 construct: purchased Ambit Kinomescan (contract panel)
How it was run: as §1

[23] = molecular target: T11, HIPK4 (Homo sapiens, UniProt Q8NE63)
T11 construct: DNA tag (qPCR read-out)
T11 sequence (Q8NE63 whole entry): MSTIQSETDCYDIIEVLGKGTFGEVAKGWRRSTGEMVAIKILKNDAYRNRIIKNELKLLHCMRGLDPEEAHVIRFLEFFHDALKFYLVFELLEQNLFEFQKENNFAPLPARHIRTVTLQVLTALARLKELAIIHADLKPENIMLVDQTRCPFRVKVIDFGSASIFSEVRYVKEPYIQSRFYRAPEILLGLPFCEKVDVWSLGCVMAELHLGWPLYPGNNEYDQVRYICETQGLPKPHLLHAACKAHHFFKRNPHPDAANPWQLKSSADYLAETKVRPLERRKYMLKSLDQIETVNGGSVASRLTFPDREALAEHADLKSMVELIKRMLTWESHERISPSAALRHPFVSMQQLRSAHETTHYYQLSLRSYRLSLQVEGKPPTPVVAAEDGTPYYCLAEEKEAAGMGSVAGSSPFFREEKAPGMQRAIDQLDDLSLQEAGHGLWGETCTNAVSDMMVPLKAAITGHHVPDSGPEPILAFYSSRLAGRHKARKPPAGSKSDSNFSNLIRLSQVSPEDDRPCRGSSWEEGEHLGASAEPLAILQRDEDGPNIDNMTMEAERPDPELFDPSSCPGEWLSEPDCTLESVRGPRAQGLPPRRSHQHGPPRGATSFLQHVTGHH
How it was run: as §1

[24] = molecular target: T12, CSNK2A1 (Homo sapiens, UniProt P68400)
T12 construct: purchased Ambit (KINOMEscan Max panel service)
How it was run: as §1

[25] = molecular target: T13, ERBB2 (Homo sapiens, UniProt P04626)
T13 construct: purchased Ambit Kinomescan (contract panel, KINOMEscan Max)
T13 sequence (P04626 23-1255): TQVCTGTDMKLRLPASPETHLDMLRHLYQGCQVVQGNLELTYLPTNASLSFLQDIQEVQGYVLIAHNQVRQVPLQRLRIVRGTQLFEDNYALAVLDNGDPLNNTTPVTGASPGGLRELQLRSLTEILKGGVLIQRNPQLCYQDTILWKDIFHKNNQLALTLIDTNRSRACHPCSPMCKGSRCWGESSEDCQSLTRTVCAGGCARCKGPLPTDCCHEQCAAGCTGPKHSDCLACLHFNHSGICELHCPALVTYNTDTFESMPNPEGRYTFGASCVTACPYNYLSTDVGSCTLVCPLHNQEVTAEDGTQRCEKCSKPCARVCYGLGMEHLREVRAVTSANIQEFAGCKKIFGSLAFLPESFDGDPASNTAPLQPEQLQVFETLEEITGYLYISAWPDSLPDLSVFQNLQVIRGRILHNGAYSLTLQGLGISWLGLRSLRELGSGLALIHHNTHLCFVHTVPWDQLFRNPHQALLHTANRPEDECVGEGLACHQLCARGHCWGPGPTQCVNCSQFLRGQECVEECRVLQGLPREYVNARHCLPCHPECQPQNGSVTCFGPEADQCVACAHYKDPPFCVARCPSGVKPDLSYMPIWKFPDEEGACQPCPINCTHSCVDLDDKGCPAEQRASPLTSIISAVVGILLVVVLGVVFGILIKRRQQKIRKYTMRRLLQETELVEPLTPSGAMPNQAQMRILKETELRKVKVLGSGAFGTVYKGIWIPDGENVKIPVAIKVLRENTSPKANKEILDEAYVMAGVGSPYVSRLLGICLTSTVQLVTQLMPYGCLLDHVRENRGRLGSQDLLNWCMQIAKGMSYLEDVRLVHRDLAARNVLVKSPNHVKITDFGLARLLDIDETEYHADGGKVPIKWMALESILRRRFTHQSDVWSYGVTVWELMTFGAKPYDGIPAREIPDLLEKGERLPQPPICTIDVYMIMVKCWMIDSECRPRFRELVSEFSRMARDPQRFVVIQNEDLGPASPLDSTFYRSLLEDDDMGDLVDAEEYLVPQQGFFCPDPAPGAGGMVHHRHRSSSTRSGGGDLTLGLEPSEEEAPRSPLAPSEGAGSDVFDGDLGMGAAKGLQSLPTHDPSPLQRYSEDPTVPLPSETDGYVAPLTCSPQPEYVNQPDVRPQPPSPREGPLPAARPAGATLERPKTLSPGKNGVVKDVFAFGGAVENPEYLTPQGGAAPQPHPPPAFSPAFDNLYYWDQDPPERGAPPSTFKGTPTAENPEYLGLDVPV
How it was run: as §1

[26] = molecular target: T14, TGFBR1 (Homo sapiens, UniProt P36897)
T14 construct: purchased Ambit Kinomescan (contract screening service)
T14 sequence (P36897 34-503): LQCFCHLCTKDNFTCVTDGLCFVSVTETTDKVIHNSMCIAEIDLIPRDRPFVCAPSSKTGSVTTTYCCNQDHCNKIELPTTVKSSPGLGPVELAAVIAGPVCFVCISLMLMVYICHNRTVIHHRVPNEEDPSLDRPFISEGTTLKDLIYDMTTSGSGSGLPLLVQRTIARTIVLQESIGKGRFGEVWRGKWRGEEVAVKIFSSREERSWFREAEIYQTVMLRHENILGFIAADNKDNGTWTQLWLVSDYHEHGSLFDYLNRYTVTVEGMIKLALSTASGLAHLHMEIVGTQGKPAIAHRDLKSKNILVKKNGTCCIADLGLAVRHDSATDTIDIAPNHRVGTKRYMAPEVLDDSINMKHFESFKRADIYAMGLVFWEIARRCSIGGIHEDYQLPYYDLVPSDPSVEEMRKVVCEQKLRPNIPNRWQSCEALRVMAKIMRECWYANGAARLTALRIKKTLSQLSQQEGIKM
How it was run: as §1

[27] = molecular target: T15, CLK4 (Homo sapiens, UniProt Q9HAZ1)
T15 construct: DNA tag (qPCR read-out); purchased Ambit Kinomescan
How it was run: as §1

[28] = molecular target: T16, PIK3CA(C420R) (Homo sapiens, UniProt P42336, C420R)
T16 construct: DNA tag (qPCR read-out)
How it was run: as §1

[29] = molecular target: T17, RPS6KA5(Kin.Dom.1-N-terminal) (Homo sapiens, UniProt O75582)
T17 construct: RPS6KA5(Kin.Dom.1-N-terminal); DNA tag (qPCR read-out)
T17 sequence (O75582 49-318 limits assumed): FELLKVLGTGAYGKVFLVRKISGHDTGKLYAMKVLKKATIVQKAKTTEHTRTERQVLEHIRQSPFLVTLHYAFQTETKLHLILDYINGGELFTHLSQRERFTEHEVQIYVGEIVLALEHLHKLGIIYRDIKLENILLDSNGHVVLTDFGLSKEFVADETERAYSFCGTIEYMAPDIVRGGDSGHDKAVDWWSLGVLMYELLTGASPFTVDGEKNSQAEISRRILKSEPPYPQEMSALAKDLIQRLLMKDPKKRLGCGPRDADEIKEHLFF
How it was run: as §1

[30] = molecular target: T18, ERN1 (Homo sapiens, UniProt O75460)
T18 construct: DNA tag (qPCR read-out)
How it was run: as §1

[31] = molecular target: T19, PAK2 (Homo sapiens, UniProt Q13177)
T19 construct: purchased Ambit (KINOMEscan Max service)
T19 sequence (Q13177 whole entry): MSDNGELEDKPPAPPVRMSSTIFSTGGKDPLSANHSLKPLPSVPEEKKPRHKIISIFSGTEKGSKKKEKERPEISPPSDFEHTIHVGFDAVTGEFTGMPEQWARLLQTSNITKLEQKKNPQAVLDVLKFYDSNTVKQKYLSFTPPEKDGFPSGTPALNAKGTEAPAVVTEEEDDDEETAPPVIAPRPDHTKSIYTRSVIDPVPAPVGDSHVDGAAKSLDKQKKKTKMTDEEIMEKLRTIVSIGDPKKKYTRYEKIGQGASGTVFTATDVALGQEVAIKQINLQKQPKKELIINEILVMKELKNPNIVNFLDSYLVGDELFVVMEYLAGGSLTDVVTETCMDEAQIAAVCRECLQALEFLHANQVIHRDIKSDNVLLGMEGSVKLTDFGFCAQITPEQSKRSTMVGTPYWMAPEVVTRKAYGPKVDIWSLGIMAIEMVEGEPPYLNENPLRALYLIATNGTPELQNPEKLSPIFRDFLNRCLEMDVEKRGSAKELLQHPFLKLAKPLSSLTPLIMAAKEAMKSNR
How it was run: as §1

[32] = molecular target: PHKG2 (Homo sapiens, UniProt P15735)
How it was run: as §1

[33] = molecular target: T20, TAOK1 (Homo sapiens, UniProt Q7L7X3)
T20 construct: DNA tag (qPCR read-out)
How it was run: as §1

[34] = molecular target: MLK1 (Homo sapiens, UniProt P80192)
How it was run: as §1

## NCCCNc1nc2c(Br)c(Br)c(Br)c(Br)c2[nH]1 [Compound 11, N-(3-aminopropyl)-4,5,6,7-tetrabromo-1H-benzo[d]imidazol-2-amine]
[1]
  remaining binding at 1 µM: 100%
[2]
  remaining binding at 1 µM: 100%
[3]
  remaining binding at 1 µM: 100%
[4]
  % binding: 72%
[5]
  remaining binding at 1 µM: 92%
[6]
  remaining binding at 1 µM: 100%
[7]
  remaining binding at 1 µM: 87%
[8]
  remaining binding at 1 µM: 72%
[9]
  remaining binding at 1 µM: 100%
[10]
  remaining binding at 1 µM: 100%
[11]
  % binding: 95%
[12]
  remaining binding at 1 µM: 79%
[13]
  remaining binding at 1 µM: 100%
[14]
  remaining binding at 1 µM: 98%
[15]
  remaining binding at 1 µM: 73%
[16]
  remaining binding at 1 µM: 94%
[17]
  remaining binding at 1 µM: 100%
[18]
  remaining binding at 1 µM: 94%
[19]
  remaining binding at 1 µM: 78%
[20]
  remaining binding at 1 µM: 100%
[21]
  % binding: 31%
[22]
  % binding: 100%
[23]
  remaining binding at 1 µM: 53%
[24]
  remaining binding at 1 µM: 100%
[25]
  remaining binding at 1 µM: 100%
[26]
  remaining binding at 1 µM: 100%
[27]
  remaining binding at 1 µM: 22%
[28]
  remaining binding at 1 µM: 100%
[29]
  remaining binding at 1 µM: 100%
[30]
  remaining binding at 1 µM: 91%
[31]
  remaining binding at 1 µM: 64%
[32]
  remaining binding at 1 µM: 75%
[33]
  remaining binding at 1 µM: 100%
[34]
  remaining binding at 1 µM: 100%
